Results reported in ChEMBL document CHEMBL3046962, “Synthesis of new olefin chalcone derivatives as antitumor, antioxidant and antimicrobial agents” (Med Chem Res, 2012).

Assays:
Assay type in all cases: functional
[1] = test system: Staphylococcus aureus; test: Antimicrobial activity against Staphylococcus aureus MTCC 96 at 20 ug after 24 hr by agar disk diffusion method; conditions: MTCC 96, 24 h, read-out: DIZ
[2] = test system: Escherichia coli; test: Antimicrobial activity against Escherichia coli DH5[alpha] at 20 ug after 24 hr by agar disk diffusion method; conditions: read-out: DIZ
[3] = test system: Proteus vulgaris; test: Antimicrobial activity against Proteus vulgaris MTCC 1751 at 20 ug after 24 hr by agar disk diffusion method; conditions: MTCC 1751, 24 h, read-out: DIZ
[4] = test system: Candida albicans; test: Antimicrobial activity against Candida albicans MTCC 3017 at 10 ug after 48 hr by agar disk diffusion method; conditions: MTCC 3017, 48 h, read-out: DIZ
[5] = test system: Radical scavenging activity; test: Antioxidant activity assessed as DPPH radical scavenging activity at 1 mM after 20 min by UV-Visible spectrophotometry
[6] = Antioxidant activity assessed as hydroxyl radical scavenging activity at 1 mM after 5 min by UV-Visible spectrophotometry
[7] = Antioxidant activity assessed as ferric reducing activity at 1 mM after 5 min by UV-Visible spectrophotometry; parameters: scale not given: the % may be the effect or the level left

For `CN[C@@H]1[C@H](O[C@H]2[C@H](O[C@H]3[C@H](O)[C@@H](O)[C@H](N=C(N)N)[C@@H](O)[C@@H]3N=C(N)N)O[C@@H](C)[C@]2(O)C=O)O[C@@H](CO)[C@H](O)[C@H]1O` [STREPTOMYCIN], the zone of inhibition at 20 µg/disc [1] was 2 mm, the zone of inhibition at 20 µg/disc [2] was 2.5 mm and the zone of inhibition at 20 µg/disc [3] was 2.4 mm.
`OC(Cn1cncn1)(Cn1cncn1)c1ccc(F)cc1F` [FLUCONAZOLE] showed a zone of inhibition at 10 µg/disc [4] of 6.5 mm.
Molecule `O=C1O[C@H]([C@@H](O)CO)C(O)=C1O` has an Activity [5] of 95.8%, an Activity [6] of 88.3% and an Activity [7] of 78.2%.
